Active and inactive are the calls of the source. The calls are words filed in the database; no cut-off is given here.

The values that follow come from ChEMBL document CHEMBL5614376, “Discovery of MT-1207: A Novel, Potent Multitarget Inhibitor as a Promising Clinical Candidate for the Treatment of Hypertension” (J Med Chem, 2024).

Assay [1] deals with Rattus norvegicus. In words: Effect on postural hypotension in Sprague-Dawley rat assessed as change in systolic blood pressure at 22 ug/kg, po treated for >30 mins followed by induction of postural hypotension measured 60 secs after postural change (reference value: 127 +/- 10 mmHg). It counts as functional. As to conditions: dose 22 µg/kg, time > 31 min.
The subject of assay [2] is Rattus norvegicus. Kind of assay: Effect on postural hypotension in Sprague-Dawley rat assessed as change in systolic blood pressure at 22 ug/kg, po treated for >30 mins followed by induction of postural hypotension measured immediately after postural change (reference value: 131 +/- 9 mmHg). As to conditions: dose 22 µg/kg, 0.5 h. It counts as functional.
Assay [3] deals with Rattus norvegicus. In words: Effect on postural hypotension in Sprague-Dawley rat assessed as change in systolic blood pressure at 22 ug/kg, po treated for >30 mins followed by induction of postural hypotension measured 5 secs after postural change (reference value: 126 +/- 12 mmHg). It counts as functional. As to conditions: dose 22 µg/kg, time > 30.08 min, 0.5013 h.
The test system of assay [4] is Rattus norvegicus. Kind of assay: Effect on postural hypotension in Sprague-Dawley rat assessed as change in systolic blood pressure at 22 ug/kg, po treated for >30 mins followed by induction of postural hypotension measured 10 secs after postural change (reference value: 127 +/- 12 mmHg). The assay is classed as functional. As to conditions: dose 22 µg/kg, time > 30.17 min, 0.5028 h.

Assay [5] relates to Rattus norvegicus. In words: Effect on postural hypotension in Sprague-Dawley rat assessed as change in systolic blood pressure at 22 ug/kg, po treated for >30 mins followed by induction of postural hypotension measured 20 secs after postural change (reference value: 129 +/- 11 mmHg). It counts as functional. As to conditions: dose 22 µg/kg, time > 30.33 min, 0.5055 h.
Assay [6] concerns Rattus norvegicus. Kind of assay: Effect on postural hypotension in Sprague-Dawley rat assessed as change in systolic blood pressure at 22 ug/kg, po treated for >30 mins followed by induction of postural hypotension measured 3 secs after postural change (reference value: 124 +/- 10 mmHg). The assay is classed as functional. As to conditions: dose 22 µg/kg, time > 30.05 min, 0.5008 h.

Assay [7] concerns Rattus norvegicus. In words: Effect on postural hypotension in Sprague-Dawley rat assessed as change in systolic blood pressure at 22 ug/kg, po treated for >30 mins followed by induction of postural hypotension measured 40 secs after postural change (reference value: 128 +/- 11 mmHg). The assay is classed as functional. As to conditions: dose 22 µg/kg, time > 30.67 min, 0.5112 h.

The target in assay [8] is T1, 5-hydroxytryptamine receptor 2A (Homo sapiens, UniProt P28223). In words: Displacement of [3H]Ketanserin from recombinant human 5-HT2A receptor extracted from CHO cell membrane at 10 nM incubated for 60 mins by radioligand binding assay relative to control. As to conditions: filed as antagonist. The assay is classed as cell membranes.
T1 sequence (P28223 whole entry): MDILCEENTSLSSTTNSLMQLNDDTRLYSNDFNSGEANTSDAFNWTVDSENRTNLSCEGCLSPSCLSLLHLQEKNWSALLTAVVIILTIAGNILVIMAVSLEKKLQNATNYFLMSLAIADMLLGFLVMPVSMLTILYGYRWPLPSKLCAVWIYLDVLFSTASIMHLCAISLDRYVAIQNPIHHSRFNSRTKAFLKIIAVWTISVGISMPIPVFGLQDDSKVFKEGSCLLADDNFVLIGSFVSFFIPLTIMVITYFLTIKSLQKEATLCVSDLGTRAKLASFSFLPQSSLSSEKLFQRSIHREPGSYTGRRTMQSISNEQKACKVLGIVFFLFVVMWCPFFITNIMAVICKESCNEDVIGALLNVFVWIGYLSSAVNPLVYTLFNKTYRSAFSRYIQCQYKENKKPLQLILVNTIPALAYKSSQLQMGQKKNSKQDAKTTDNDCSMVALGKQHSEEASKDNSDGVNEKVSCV
Assay [9] deals with T1, 5-hydroxytryptamine receptor 2A. Kind of assay: Displacement of [3H]Ketanserin from recombinant human 5-HT2A receptor extracted from CHO cell membrane at 100 nM incubated for 60 mins by radioligand binding assay relative to control. It counts as cell membranes. As to conditions: filed as antagonist.
Assay [10] shares this target. Kind of assay: Displacement of [3H]Ketanserin from recombinant human 5-HT2A receptor extracted from CHO cell membrane at 1 nM incubated for 60 mins by radioligand binding assay relative to control. It counts as cell membranes.
For assay [11], the target named is T2, Alpha-1A adrenergic receptor (Homo sapiens) (UniProt P35348).
T2 sequence (whole entry): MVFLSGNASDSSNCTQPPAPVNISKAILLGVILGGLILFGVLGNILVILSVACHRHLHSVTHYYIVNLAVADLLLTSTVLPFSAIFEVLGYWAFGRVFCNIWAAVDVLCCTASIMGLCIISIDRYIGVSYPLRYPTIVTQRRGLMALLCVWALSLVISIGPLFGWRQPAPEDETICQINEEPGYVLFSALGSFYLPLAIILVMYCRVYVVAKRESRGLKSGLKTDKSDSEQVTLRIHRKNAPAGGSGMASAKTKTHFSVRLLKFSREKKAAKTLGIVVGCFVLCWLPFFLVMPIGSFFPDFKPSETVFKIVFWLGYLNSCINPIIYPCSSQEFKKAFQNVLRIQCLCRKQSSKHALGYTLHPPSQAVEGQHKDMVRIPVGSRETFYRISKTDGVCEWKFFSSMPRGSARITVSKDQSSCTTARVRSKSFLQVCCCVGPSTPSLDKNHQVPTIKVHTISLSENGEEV
In words: Displacement of [3H]prazosin from recombinant human alpha 1A adrenoceptor extracted from CHO cell membrane at 1 nM incubated for 60 mins by radioligand binding assay relative to control. It counts as cell membranes.

For assay [12], the target named is T2, Alpha-1A adrenergic receptor (Homo sapiens). Kind of assay: Displacement of [3H]prazosin from recombinant human alpha 1A adrenoceptor extracted from CHO cell membrane at 10 nM incubated for 60 mins by radioligand binding assay relative to control. As to conditions: filed as antagonist. It counts as cell membranes.
For assay [13] the target is unchanged. Kind of assay: Displacement of [3H]prazosin from recombinant human alpha 1A adrenoceptor extracted from CHO cell membrane at 100 nM incubated for 60 mins by radioligand binding assay relative to control. The assay is classed as cell membranes. As to conditions: filed as antagonist.
For assay [14], the system named is Rattus norvegicus. In words: Effect on serum creatinine level in 2K2C renovascular hypertensive Sprague-Dawley rat model at 20 mg/kg, po measured after 9 weeks by biochemical analysis. It counts as functional, organism-based.
For assay [15], the system named is Rattus norvegicus. Kind of assay: Effect on serum urea level in 2K2C renovascular hypertensive Sprague-Dawley rat model at 20 mg/kg, po measured after 9 weeks by biochemical analysis. It counts as functional, organism-based.
Assay [16] concerns Rattus norvegicus. Kind of assay: Antihypertensive activity in 2K2C renovascular hypertensive Sprague-Dawley rat model assessed as systolic blood pressure at 20 mg/kg, po measured after 9 weeks (Rvb ~ 202 mmHg). The assay is classed as functional.

As to `COc1cc2nc(N3CCN(C(=O)c4ccco4)CC3)nc(N)c2cc1OC` [PRAZOSIN], the Activity with Rattus norvegicus [1] is recorded as 74 mmHg; in the assay with Rattus norvegicus [2], 95 mmHg; with Rattus norvegicus [3], 77 mmHg; in the assay with Rattus norvegicus [4], 75 mmHg; with Rattus norvegicus [5] it was 75 mmHg; in the assay with Rattus norvegicus [6], 81 mmHg. In the assay on Rattus norvegicus [7], the Activity was found to be 74 mmHg.

On to `Fc1ccc2c(C3CCN(CCCCn4nc5ccccc5n4)CC3)noc2c1`, for which the inhibition was 82% in [8]; 98.9% in [9]; -5.42% in [10]; 83.4% in assay [11] (filed as antagonist); 99.9% in assay [12]; 99.9% in [13].

On to `Fc1ccc2c(C3CCN(CCCCn4nnc5ccccc54)CC3)noc2c1`, for which the inhibition in [8] turned out to be 89.5%; in assay [9], 98.2%; in assay [10] it was 39.9%; in [11] (filed as antagonist), 93.8%; in assay [12], 100%; in [13], 101%.

For the molecule `c1ccc2c(c1)ncn2CCCCN1CCN(c2nsc3ccccc23)CC1`, the inhibition amounted to 93.4% in assay [8]; 99.6% in assay [9]; 15.4% in assay [10]; 78% in assay [11] (filed as antagonist); 98.9% in assay [12]; 99.8% in [13].

Consider `Fc1ccc2c(C3CCN(CCCn4nc5ccccc5n4)CC3)noc2c1`, for which the inhibition was 98.7% in assay [8]; 98.3% in [9]; 79.7% in assay [10] (filed as antagonist); 28.9% in assay [11]; 83.2% in assay [12]; 99% in assay [13].

Take `CCCCc1nc(Cl)c(CO)n1Cc1ccc(-c2ccccc2-c2nnn[nH]2)cc1` [LOSARTAN]: the result in the assay on Rattus norvegicus [14] and in the assay with Rattus norvegicus [15] was Active. For the same molecule, the Activity with Rattus norvegicus [16] is recorded as 176 mmHg.

As to `Fc1ccc2c(C3CCN(CCCCn4cnc5ccccc54)CC3)noc2c1`, the inhibition is 81.9% in [8]; 96% in assay [9]; -3.85% in assay [10]; 80.7% in assay [11] (filed as antagonist); 100% in assay [12]; 100% in [13].

Regarding `Fc1ccc2c(N3CCN(CCCn4cnc5ccccc54)CC3)noc2c1`, the inhibition was determined as 87.3% in assay [8]; 98% in assay [9]; 24.9% in assay [10]; 52.8% in [11] (filed as antagonist); 98.4% in [12]; 100% in assay [13].
